Several values for one entry are separate records, joined by “and”; a condition that tells them apart may be missing. Equal entries are not always repeated.
Key:
tau [1] = target: tau (Homo sapiens, UniProt P10636); test: Competition binding assay with ^3H-THK5351 in postmortem hippocampus brain homogenates; settings: vs ^3H-THK5351 1.5 nM, AD hippocampus homogenate; read-out: Ki2 (high-affinity site)
Description: Postmortem brain tissues from three patients with AD and three healthy control subjects were used for the in vitro binding assays. All the brain tissue, which came from the Netherlands Brain Bank, had been homogenized in PBS containing a protease/phosphatase inhibitor (see Table 1).
After 2-h incubation at room temperature, the binding assay was terminated by filtration through glass fiber filters presoaked for at least 3 h in 0.3% polyethylenimine. To do so, the filters were rinsed and filtered three times using cold binding buffer, and then the radiation on the filter was quantified using a Beckman Coulter scintillation counter. The data for the regional binding distribution studies were analyzed using Prism version 7.0 software for Mac (GraphPad Software Inc., La Jolla, CA, USA), and two-way analysis of variance with multiple comparisons was performed.

tau [2] = test: ^3H-THK5351 competition autoradiography with unlabeled THK5351, T807 and deprenyl; assay type: binding, human; settings: cortical areas
Description: Six adjacent sections from AD1 (see Table 1) were used for competition autoradiography of unlabeled THK5351, T807, and deprenyl. After reaching room temperature, the frozen sections were preincubated for 10 minutes with PBS (pH 7.4) and then incubated for 1 h at room temperature with ^3H-THK5351 (1.5 nM) in addition to 10 μM unlabeled THK5351; 10 μM unlabeled deprenyl; 10 μM unlabeled T807; 10 μM unlabeled THK5351 and 10 μM unlabeled deprenyl; 10 μM unlabeled T807 and 10 μM unlabeled deprenyl. The sections were rinsed three times in cold buffer for 5 minutes, followed by a quick dip in cold distilled water. Nonspecific binding was determined using 10 μM unlabeled THK5351 or 10 μM unlabeled THK5117. […]
For all the autoradiography studies, the regions of interest were drawn manually on the autoradiogram using multigauge software and were used for the semiquantitative analyses. Photostimulated luminescence per square millimeter (PSL/mm^2) was transformed to picomoles per cubic millimeter using a transformation factor that took into account the resolution of the image, the pixel value for the concentration of ligand, and the thickness of the sections: (PSL/mm^2 value)/([pixel value per pmol] × [(resolution/1000)^2] × [cryosection thickness]/1000).

[3] = target: T1, monoamine oxidase B (MAO-B) (Homo sapiens, UniProt P27338); test: Competition binding with ^3H-deprenyl in hippocampus and putamen brain homogenates (off-target binding); settings: vs ^3H-deprenyl 10 nM, two AD cases
T1 construct: postmortem brain homogenates from the hippocampus and putamen (0.2 mg/ml tissue) of two patients with AD; tissue Netherlands Brain Bank; host or cells: postmortem human AD hippocampus and putamen homogenate
T1 sequence (P27338 1-520): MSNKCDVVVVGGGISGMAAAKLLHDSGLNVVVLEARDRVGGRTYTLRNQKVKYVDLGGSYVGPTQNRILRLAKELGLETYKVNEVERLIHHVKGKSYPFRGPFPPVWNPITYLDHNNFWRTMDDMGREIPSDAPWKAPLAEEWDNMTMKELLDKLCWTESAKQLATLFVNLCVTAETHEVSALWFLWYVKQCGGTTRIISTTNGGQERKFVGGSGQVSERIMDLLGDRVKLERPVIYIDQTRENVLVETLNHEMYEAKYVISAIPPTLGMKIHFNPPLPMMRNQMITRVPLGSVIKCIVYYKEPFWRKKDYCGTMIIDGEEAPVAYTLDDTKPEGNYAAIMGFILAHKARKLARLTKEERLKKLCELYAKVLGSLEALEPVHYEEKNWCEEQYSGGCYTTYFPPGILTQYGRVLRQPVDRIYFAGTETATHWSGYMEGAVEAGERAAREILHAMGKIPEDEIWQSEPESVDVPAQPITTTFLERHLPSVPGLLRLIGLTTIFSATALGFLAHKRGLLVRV
Description: Competition binding studies using postmortem brain homogenates from the hippocampus and putamen (0.2 mg/ml tissue) of two patients with AD were performed using ^3H-deprenyl (10 nM in Na-K phosphate buffer, pH 7.4) and increasing concentrations of unlabeled THK5117 (10^−14 to 10^−5 M) and T807 (10^−14 to 10^−5 M) to determine the off-target binding of the tau PET tracers. After 2-h incubation at room temperature, the binding assay was terminated by filtration through glass fiber filters presoaked for at least 3 h in 0.3% polyethylenimine. To do so, the filters were rinsed and filtered three times using cold binding buffer, and then the radiation on the filter was quantified using a Beckman Coulter scintillation counter. The data from all the binding studies were analyzed using Prism version 7.0 software.

Sequence of tau (Homo sapiens, UniProt P10636) (P10636 623-695 limits assumed): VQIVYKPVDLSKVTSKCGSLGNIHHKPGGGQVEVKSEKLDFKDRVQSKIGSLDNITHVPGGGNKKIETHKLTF

Row | Ki (tau [1]) | ^3H-THK5351 binding displaced (tau [2]) | Ki ([3]; hippocampus homogenate) | Ki ([3]; putamen homogenate) | SMILES
1 | 0.016 µM | 70–80% | – | – | CNc1ccc(-c2ccc3cc(OC[C@H](O)CF)ccc3n2)cn1 [THK5351]
2 | 0.078 µM | 70–80% | 0.227 µM and > 0.2 µM | 0.135 µM and ~0.15 µM | Fc1ccc(-c2ccc3c(c2)[nH]c2ccncc23)cn1 [T807]

From PMC5725799, “Comparative binding properties of the tau PET tracers THK5117, THK5351, PBB3, and T807 in postmortem Alzheimer brains” (Alzheimer's Research & Therapy, 2017)
